Measurements as given in patent US20120283175A1, “ANTIBACTERIAL COMPOSITIONS” (Achaogen, Inc., priority 2009, published 2012).
In brackets after ≈: the same amount, converted by molar mass. Several values for one entry are separate records, joined by “and”; a condition that tells them apart may be missing. Equal values may be shown once. Entries after “also recorded” stand apart in the source; their conditions may differ. Read-outs that look alike come from different tables or passages of the source.

Assays:
[1] = Pharmacokinetic studies of LpxCi-4 alone or in the presence of vancomycin; format: in vivo; conditions: for AUC / Cmax / Tmax / half-life: in vivo, 10 mg/kg
Description: This would result in a lower static dose for the LpxC inhibitor and apparent synergy. In order to address this, pharmacokinetic studies of LpxCi-4 either alone or in the presence of vancomycin at 220 mg/kg were performed. […] The half-life (HL_Lambda_z), time to maximum concentration (Tmax), maximal concentration (Cmax), and area under the concentration-time curve (AUC) for LpxCi-4 are provided.

K. pneumo. (ATCC43816) = assay: Neutropenic thigh in vivo efficacy model (mice); parameters: species or system Klebsiella pneumoniae; Static Dose, LpxC cmpd / Static Dose, LpxC in combination: unit not given here
From the text: (§1) The model was run essentially as described by Craig and others (see Gudmundsson et al., “Murine Thigh Infection Model,” Handbook of Animal Models of Infection, M. A. Sande and O. Zak, Eds.; London: Academic Press, 1999, pp 137-144). Briefly, mice were rendered neutropenic prior to infection with 2 doses of cyclophosphamide, and then infected intramuscularly in the thigh with inocula of 10^3-10^5 CFU of either K. pneumo. (ATCC43816) or P. aeruginosa (ATCC27853). Antibiotics or vehicle alone as a negative control were administered twice at 2 hrs and 14 hrs post-infection. The animals were kept neutropenic for the duration of the experiment in order to minimize the effect of white blood cells on the infection such that the microbiological readout measures the in vivo interaction of drugs and bacteria. At 24 hrs post-infection, thighs were harvested, homogenized, and plated to measure the number of CFUs surviving per thigh. Thighs from a subset of animals were also harvested 2 hrs post-infection to record the CFUs present just prior to the first antibiotic treatment (pre-treatment).

envA1 (D22) E. coli = assay: MIC by broth microdilution, isogenic envA1 mutant strain; format: cell-based
Description: (§2) Bacterial isolates were cultivated from −70° C. frozen stocks of the indicated strains by overnight passages at 35° C. in ambient air on Mueller-Hinton agar (Beckton Dickinson, Franklin Lakes, N.J.). Minimum Inhibitory Concentrations (MICs) were determined by the broth microdilution method in accordance with the Clinical and Laboratory Standards Institute (CLSI) guidelines. In brief, organism suspensions were adjusted to a 0.5 McFarland standard to yield a final inoculum between 3×10^5 and 7×10^5 colony-forming units (CFU)/mL. Drug dilutions and inocula were made in sterile, cation adjusted Mueller-Hinton Broth (Beckton Dickinson). An inoculum volume of 100 μL was added to wells containing 100 μL of broth with 2-fold serial dilutions of drug. All inoculated microdilution trays were incubated in ambient air at 35° C. for 18-24 hours. Following incubation, the lowest concentration of the drug that prevented visible growth (OD600 nm <0.05) was recorded as the MIC.

E. coli ATCC25922 = assay: MIC by broth microdilution, wild type strain ATCC25922; format: cell-based
Description: as §2

envA+ (D21) E. coli = assay: MIC by broth microdilution, isogenic envA+ strain; format: cell-based
Description: as §2

[2] = system: P. aeruginosa (ATCC27853); conditions: for ΔLogCFU vs 24 hr / Log CFU Mean: 24 hr; for Log CFU Mean: n=5; for in vivo synergy with erythromycin: erythromycin 60 mg/kg
From the text: as §1
This table focuses on the sensitive part of the LpxCi-4 dose response curve (30 mg/kg) by examining the mean log CFU at 0 or 24 hours, as well as the log change in CFU at 24 hours relative to zero hours (“ΔLogCFU vs […]”). Data is given for animals treated with vehicle, LpxCi-4 at 30 mg/kg, a second agent alone at the indicated doses or the combination of LpxCi-4 at 30 mg/kg plus the second agent at the indicated dose. The standard errors for each measurement are also given (n=5 animals/group). By comparing the observed drop in CFU of the combination with the sum of the drop in CFU associated with each of the two agents given separately, one can determine whether the combination is, in fact, synergistic in vivo.

[3] = LpxCi-4 (10 mg/kg) + vancomycin (220 mg/kg)
[4] = strain 43816, combination agent Rifampin
[5] = first block of Table 5, mg/kg/day b.i.d.: 3936 30, Rif. 30, Azith. 50
[6] = second block of Table 5, mg/kg/day b.i.d.: 3936 30, Eryth. 60, Dapto. 3, Oxacil. 100
[7] = strain 27853, combination agent Rifampin
[8] = strain 27853, combination agent Vanco

In the case of CC(C)(N)[C@H](NC(=O)c1ccc(C#CC#CC2CC2)cc1)C(=O)NO [LpxCi-4, (S)—N-(3-amino-1-(hydroxyamino)-3-methyl-1-oxobutan-2-yl)-4-(cyclopropylbuta-1,3-diynyl)benzamide], the AUC [1, 3] is reported as 6870 ng·h/mL, the Cmax [1, 3] is reported as 2630 ng/mL and the Tmax [1, 3] is reported as 0.25 h. For the same molecule, the half-life [1, 3] was 3.27 h, the AUC ([1]; LpxCi-4 (10 mg/kg) alone) was 6030 ng·h/mL and the Cmax ([1]; LpxCi-4 (10 mg/kg) alone) was 2200 ng/mL. For the same molecule, the Tmax ([1]; LpxCi-4 (10 mg/kg) alone) was 0.5 h, the half-life ([1]; LpxCi-4 (10 mg/kg) alone) was 2.63 h and the “PK / AUC of LpxCi-4 in the presence vs absence of vancomycin” value ([1]; vancomycin at 220 mg/kg, 220 mg/kg) was “not significantly affected; also recorded: essentially identical”. The “in vivo synergy with rifampin” value (K. pneumo. (ATCC43816); bacterial strain ATCC43816) was “in vivo synergy”, the “in vivo synergy with vancomycin” value (K. pneumo. (ATCC43816); bacterial strain ATCC43816) was “in vivo synergy” and the “Static Dose, LpxC cmpd” value (K. pneumo. (ATCC43816); strain 43816, LpxC compound alone) was 36 and 33. The “Fold Shift Static Dose” value (K. pneumo. (ATCC43816); [4]) was 4x, the “Static Dose, LpxC in combination” value (K. pneumo. (ATCC43816); [4]) was 9 and the “Fold Shift Static Dose” value (K. pneumo. (ATCC43816); strain 43816, combination agent Vanco) was 6.6x. The “Static Dose, LpxC in combination” value (K. pneumo. (ATCC43816); strain 43816, combination agent Vanco (440 mg/kg/day)) was 5, the “shift in static dose” value (K. pneumo. (ATCC43816); with rifampin, K. pneumoniae ATCC43816) was 4 fold and the MIC (envA1 (D22) E. coli; Strain envA1 (D21)) was “≦0.004”. For the same molecule, the “Fold decrease in MIC (envA+/envA1)” value (envA1 (D22) E. coli; envA+ vs envA1 E. coli) was “≧4”, the MIC (E. coli ATCC25922) was 0.015 µg/mL (≈ 0.0442 µM) and the MIC (envA+ (D21) E. coli) was 0.015 µg/mL (≈ 0.0442 µM). For the same molecule, the “ΔLogCFU vs 24 hr” value [2, 5] was −1.57, the “Log CFU Mean” value [2, 5] was 6.17 and the “ΔLogCFU vs 24 hr” value [2, 6] was −0.81. The “Log CFU Mean” value [2, 6] was 6.83, the “in vivo synergy with daptomycin” value ([2]; bacterial strain ATCC27853) was “does not exhibit in vivo synergy” and the “in vivo synergy with rifampin” value ([2]; bacterial strain ATCC27853) was “in vivo synergy”. The “in vivo synergy with vancomycin” value ([2]; bacterial strain ATCC27853) was “in vivo synergy”, the “in vivo synergy with erythromycin” value ([2]; bacterial strain ATCC27853) was “modest in vivo synergy” and the “in vivo synergy with erythromycin” value ([2]; bacterial strain ATCC27853, listed as LPxCi-4) was “only a very modest shift in the dose response curve”. For the same molecule, the “in vivo synergy with daptomycin” value ([2]; bacterial strain ATCC27853, listed as 3936) was “no measurable in vivo synergy”, the “drop in CFU relative to vehicle” value ([2]; each agent at 30 mg/kg) was 1.57 log and the “Static Dose, LpxC cmpd” value ([2]; strain 27853, LpxC compound alone) was 60 and 42 and 50. For the same molecule, the “Static Dose, LpxC in combination” value ([2]; strain 27853, combination agent Daptomycin) was 50, the “Fold Shift Static Dose” value ([2]; strain 27853, combination agent Erythromycin) was less than 1.5x and the “Static Dose, LpxC in combination” value ([2]; strain 27853, combination agent Erythromycin (60 mg/kg in text)) was 40. For the same molecule, the “Static Dose, LpxC in combination” value ([2]; strain 27853, combination agent Oxacillin) was 50, the “Fold Shift Static Dose” value [2, 7] was 1.9x and the “Static Dose, LpxC in combination” value [2, 7] was 22. The “Fold Shift Static Dose” value [2, 8] was 2.4x, the “Static Dose, LpxC in combination” value [2, 8] was 25 and the “shift in static dose” value ([2]; with rifampin, P. aeruginosa ATCC27853) was 2 fold.
